Measured values from patent publication US12605396B2, “Methods of treating mastitis with an orthosomycin antimicrobial compound” (Intervet Inc., priority 2020, dated 2026).
In brackets after ≈: the same amount, converted by molar mass.

Experiments:
coa-neg Staph. = assay: MIC in bacteriological broth (CLSI VET01-A4); type: cell-based, coagulase-negative staphylococci
Method: (§1) Minimal inhibitory concentrations (MIC) were determined in bacteriological broth according to Clinical and Laboratory Standard Institute (CLSI) guideline VET01-A4 [1]. The MIC results were interpreted according to the CLSI document VET01-S3 [2].

Truep. pyogenes = assay: MIC in bacteriological broth (CLSI VET01-A4); type: cell-based, Trueperella pyogenes
Method: as §1

Strep. dysgalactiae = assay: MIC in bacteriological broth (CLSI VET01-A4); type: cell-based, Streptococcus dysgalactiae
Method: as §1

S. aureus [1] = assay: MIC in bacteriological broth (CLSI VET01-A4); type: cell-based, Staphylococcus aureus
Method: as §1

S. aureus [2] = assay: MIC in full cream UHT milk with alamar Blue; type: cell-based, Staphylococcus aureus
Method: (§2) For MIC determination in milk, the in vitro activity was determined by measuring the minimum inhibitory concentrations (MIC) according to CLSI document VET01-A4 [1] using full cream UHT milk as test medium. About 2 h before the end of the incubation 10 μL of alamar Blue® was added to each well of the microdilution trays, resulting in a final concentration of 10% of alamar Blue®. Blue color of the medium indicated no living cells (no bacterial growth) red/pink to white color of the medium indicated living cells (bacterial growth). The MIC results were interpreted according to the CLSI document VET01-S3 [2].

S. uberis = assay: MIC in bacteriological broth (CLSI VET01-A4); type: cell-based, Streptococcus uberis
Method: as §1

[3] = tested on: mastitis-causing pathogens; assay: Antimicrobial activity against mastitis-causing pathogens (overall statement); type: cell-based; conditions: broth-dilution assay and milk
Method: as §1, §2

Strep. agalactiae = assay: MIC in bacteriological broth (CLSI VET01-A4); type: cell-based, Streptococcus agalactiae
Method: as §1

Streptococcus uberis = assay: Experimental mastitis infection model in lactating cows; type: in vivo; conditions: oily suspension 200 mg/quarter intramammary, three consecutive times after milking, 21 days observation, FIG. 1
Method: In short, the hind quarters of 10 healthy cows were infected with Streptococcus uberis by intramammary application of 100 bacteria per quarter. At appearance of clinical signs of the challenged quarters (abnormal milk appearance, swollen/hard quarter, pain on palpation) one hind quarter of each cow was treated with an oily suspension of avilamycin at a dose of 200 mg/quarter at three consecutive times after milking. Furthermore, the neighboring infected hint quarter showing clinical signs was mock treated with formulation vehicle at the identical dose volume and schedule. Milk samples were analyzed for S. uberis over a period of 21 days.

[4] = bacteriological broth, 30 coa-neg Staph. isolates tested
[5] = broth, of 30 coa-neg Staph. isolates
[6] = bacteriological broth, 30 Truep. pyogenes isolates tested
[7] = broth, of 30 Truep. pyogenes isolates
[8] = bacteriological broth, 29 Strep. dysgalactiae isolates tested
[9] = broth, of 29 Strep. dysgalactiae isolates
[10] = bacteriological broth, 50 S. aureus isolates tested
[11] = broth, of 50 S. aureus isolates
[12] = bacteriological broth, 30 S. uberis isolates tested
[13] = broth, of 30 S. uberis isolates
[14] = bacteriological broth, 30 Strep. agalactiae isolates tested
[15] = broth, of 30 Strep. agalactiae isolates

COC[C@H]1O[C@@H](OC2OC[C@@H]3O[C@]4(O[C@H]3[C@H]2OC(=O)C(C)C)O[C@H](C)[C@@](O)(C(C)=O)[C@@H]2OCO[C@H]24)[C@@H](OC)[C@@H](O)[C@@H]1O[C@@H]1O[C@H](C)[C@H](OC)[C@H](O[C@H]2C[C@@]3(C)OC4(C[C@@H](O)[C@H](O[C@H]5C[C@@H](O)[C@H](OC(=O)c6c(C)c(Cl)c(O)c(Cl)c6OC)[C@@H](C)O5)[C@@H](C)O4)O[C@@H]3[C@@H](C)O2)[C@H]1O (some centres unmarked) [avilamycin]
MIC50 (coa-neg Staph.; [4]): 2 µg/mL (≈ 1.42 µM) | MIC90 (coa-neg Staph.; [4]): 4 µg/mL (≈ 2.85 µM) | Maximum MIC (coa-neg Staph.; [4]): 32 µg/mL | Minimum MIC (coa-neg Staph.; [4]): 1 µg/mL | Number of isolates with MIC 1 μg/mL (coa-neg Staph.; [5]): 4 | Number of isolates with MIC 2 μg/mL (coa-neg Staph.; [5]): 13 | Number of isolates with MIC 4 μg/mL (coa-neg Staph.; [5]): 11 | Number of isolates with MIC 8 μg/mL (coa-neg Staph.; [5]): 1 | Number of isolates with MIC 32 μg/mL (coa-neg Staph.; [5]): 1 | MIC50 (Truep. pyogenes; [6]): ≤0.063 µg/mL | MIC90 (Truep. pyogenes; [6]): ≤0.063 µg/mL | Maximum MIC (Truep. pyogenes; [6]): 0.125 µg/mL | Minimum MIC (Truep. pyogenes; [6]): ≤0.063 µg/mL | Number of isolates with MIC 0.125 μg/mL (Truep. pyogenes; [7]): 1 | Number of isolates with MIC ≤0.063 μg/mL (Truep. pyogenes; [7]): 29 | MIC50 (Strep. dysgalactiae; [8]): 0.125 µg/mL (≈ 0.089 µM) | MIC90 (Strep. dysgalactiae; [8]): 0.25 µg/mL (≈ 0.178 µM) | Maximum MIC (Strep. dysgalactiae; [8]): 0.25 µg/mL | Minimum MIC (Strep. dysgalactiae; [8]): ≤0.063 µg/mL | Number of isolates with MIC 0.125 μg/mL (Strep. dysgalactiae; [9]): 23 | Number of isolates with MIC 0.25 μg/mL (Strep. dysgalactiae; [9]): 5 | Number of isolates with MIC ≤0.063 μg/mL (Strep. dysgalactiae; [9]): 1 | MIC50 (S. aureus [1]; [10]): 2 µg/mL (≈ 1.42 µM) | MIC90 (S. aureus [1]; [10]): 4 µg/mL (≈ 2.85 µM) | Maximum MIC (S. aureus [1]; [10]): 4 µg/mL | Minimum MIC (S. aureus [1]; [10]): 1 µg/mL | Number of isolates with MIC 1 μg/mL (S. aureus [1]; [11]): 5 | Number of isolates with MIC 2 μg/mL (S. aureus [1]; [11]): 19 | Number of isolates with MIC 4 μg/mL (S. aureus [1]; [11]): 26 | Activity in milk (S. aureus [2]): maintained its activity | MIC90 against S. aureus compared with MIC90 of penicillin G (S. aureus [2]): significantly lower | Distribution of MIC values: isolates with MIC 0.125 μg/ml (S. aureus [2]; S. aureus (n = 20)): 0 | Distribution of MIC values: isolates with MIC 0.25 μg/ml (S. aureus [2]; S. aureus (n = 20)): 0 | Distribution of MIC values: isolates with MIC 0.5 μg/ml (S. aureus [2]; S. aureus (n = 20)): 1 | Distribution of MIC values: isolates with MIC 1 μg/ml (S. aureus [2]; S. aureus (n = 20)): 1 | Distribution of MIC values: isolates with MIC 2 μg/ml (S. aureus [2]; S. aureus (n = 20)): 1 | Distribution of MIC values: isolates with MIC 4 μg/ml (S. aureus [2]; S. aureus (n = 20)): 16 | Distribution of MIC values: isolates with MIC 8 μg/ml (S. aureus [2]; S. aureus (n = 20)): 1 | Distribution of MIC values: isolates with MIC 16 μg/ml (S. aureus [2]; S. aureus (n = 20)): 0 | Distribution of MIC values: isolates with MIC 32 μg/ml (S. aureus [2]; S. aureus (n = 20)): 0 | Distribution of MIC values: isolates with MIC 64 μg/ml (S. aureus [2]; S. aureus (n = 20)): 0 | Distribution of MIC values: isolates with MIC >64 μg/ml (S. aureus [2]; S. aureus (n = 20)): 0 | Distribution of MIC values: isolates with MIC ≤0.063 μg/ml (S. aureus [2]; S. aureus (n = 20)): 0 | MIC90 (S. aureus [2]; S. aureus (n = 20)): 4 µg/mL (≈ 2.85 µM) | MIC50 (S. uberis; [12]): 0.5 µg/mL (≈ 0.356 µM) | MIC90 (S. uberis; [12]): 0.5 µg/mL (≈ 0.356 µM) | Maximum MIC (S. uberis; [12]): 0.5 µg/mL | Minimum MIC (S. uberis; [12]): 0.125 µg/mL | Number of isolates with MIC 0.125 μg/mL (S. uberis; [13]): 1 | Number of isolates with MIC 0.25 μg/mL (S. uberis; [13]): 12 | Number of isolates with MIC 0.5 μg/mL (S. uberis; [13]): 17 | Antimicrobial activity against mastitis-causing pathogens [3]: Good antimicrobial activity | MIC50 (Strep. agalactiae; [14]): ≤0.063 µg/mL | MIC90 (Strep. agalactiae; [14]): 0.125 µg/mL (≈ 0.089 µM) | Maximum MIC (Strep. agalactiae; [14]): 0.125 µg/mL | Minimum MIC (Strep. agalactiae; [14]): ≤0.063 µg/mL | Number of isolates with MIC 0.125 μg/mL (Strep. agalactiae; [15]): 13 | Number of isolates with MIC ≤0.063 μg/mL (Strep. agalactiae; [15]): 17 | Proportion of quarters free of S. uberis compared to quarters treated with vehicle (Streptococcus uberis): substantially higher
